# Source: patent US8648035B2 (priority 2007, dated 2014)
# What was measured:
# [1] = test system: E. coli cell-free transcription-translation system; format: biochemical; conditions: for IC50: read-out: IC50 for inhibition of protein synthesis (firefly luciferase)
# [2] = test system: E. coli cell-free transcription-translation system; format: biochemical; conditions: bacterial system
Substance,stimulation of protein synthesis (luciferase) [1],inhibition of synthesis of GFP [1],IC50 [1],combination effect with antibiotic on inhibition of protein synthesis ([2]; combination with streptomycin or other related antibiotics),increase of potency in inhibiting protein synthesis ([2]; in the presence of 3 μM streptomycin)
SILPYPY [BLS26],20%,,,,
SYPDLHL [BLS25],20%,,,,
AGAAMSH [BLS15],,shown to inhibit synthesis of GFP,15 µM,synergistic action,25 fold
AMSAPIP [BLS18],,,137 µM,,
